Values joined by “and” are separate entries in the source; they are usually repeats but may differ in a detail not shown here. Identical values can stand only once. After the bases stand the sugars from the 5' end (letter, count) and the backbone: PS all phosphorothioate, else s phosphorothioate and o phosphodiester by linkage. Methylation of C is not given here. e = 2'-O-(2-methoxyethyl) (MOE); k = constrained ethyl (cEt); d = 2'-deoxy (DNA)
Legend:
APOL1 = conditions: ASO
SOD1 = conditions: ASO

## ATAATGGTAGGTCTAC (sugars k4 d9 k3, PS)
APOL1; A431, 0.0625 µM
  target mRNA inhibition: 42%
APOL1; A431, 0.25 µM
  target mRNA inhibition: 78%
APOL1; A431, 1 µM
  target mRNA inhibition: 90%

## ATATCAGATGGGTACT (sugars k2 d4 e3 k2 d5, PS)
APOL1; A431, 2 µM
  target mRNA inhibition: 52%

## ATATCAGATGGGTACT (sugars kkddddkekekddddd, PS)
APOL1; A431, 2 µM
  target mRNA inhibition: 21%

## ATCAGATGGGTACTTC (sugars kekddddeekkddddd, PS)
APOL1; A431, 2 µM
  target mRNA inhibition: 91%

## ATCAGATGGGTACTTC (sugars kkddddekekeddddd, PS)
APOL1; A431, 2 µM
  target mRNA inhibition: 73%

## ATCAGATGGGTACTTC (sugars kkddddkekekkdddd, PS)
APOL1; A431, 2 µM
  target mRNA inhibition: 45%

## ATCAGATGGGTACTTC (sugars kkkddddkdkdkdddd, PS)
APOL1; A431, 2 µM
  target mRNA inhibition: 79%

## ATCAGATGGGTACTTC (sugars kkkddddkekeddddd, PS)
APOL1; A431, 2 µM
  target mRNA inhibition: 85%

## ATGAACGCAATGCTGA (sugars k4 d9 k3, PS)
APOL1; A431, 0.0625 µM
  target mRNA inhibition: 52%
APOL1; A431, 0.25 µM
  target mRNA inhibition: 76%
APOL1; A431, 1 µM
  target mRNA inhibition: 92%

## ATGCTAATTTTCTGAC (sugars kkkddddkekekdddd, PS)
APOL1; A431, 0.0156 µM
  target mRNA inhibition: 26%
APOL1; A431, 0.0625 µM
  target mRNA inhibition: 46%
APOL1; A431, 0.25 µM
  target mRNA inhibition: 68%
APOL1; A431, 1 µM
  target mRNA inhibition: 88%
APOL1; A431, 2 µM
  target mRNA inhibition: 95%

## ATTCTATTAGAGGGCT (sugars k3 d5 k3 d5, PS)
APOL1; A431, 2 µM
  target mRNA inhibition: 95%

## ATTCTATTAGAGGGCT (sugars kekddddeekkddddd, PS)
APOL1; A431, 2 µM
  target mRNA inhibition: 77%

## ATTCTATTAGAGGGCT (sugars kkddddkdkdkddddd, PS)
APOL1; A431, 2 µM
  target mRNA inhibition: 74%

## ATTCTATTAGAGGGCT (sugars kkkddddkdkdkdddd, PS)
APOL1; A431, 2 µM
  target mRNA inhibition: 78%

## ATTCTATTAGAGGGCT (sugars kkkddddkekeddddd, PS)
APOL1; A431, 2 µM
  target mRNA inhibition: 73%

## ATTCTATTAGAGGGCT (sugars kkkddddkekekdddd, PS)
APOL1; A431, 2 µM
  target mRNA inhibition: 37%

## ATTCTCATGGTACAGG (sugars k4 d9 k3, PS)
APOL1; A431, 0.0156 µM
  target mRNA inhibition: 24%
APOL1; A431, 0.0625 µM
  target mRNA inhibition: 49% and 50%
APOL1; A431, 0.25 µM
  target mRNA inhibition: 83% and 84%
APOL1; A431, 1 µM
  target mRNA inhibition: 94% and 93%

## ATTCTCATGGTACAGG (sugars kddddkekekeddddd, PS)
APOL1; A431, 2 µM
  target mRNA inhibition: 51%

## ATTCTCATGGTACAGG (sugars kekddddeekkddddd, PS)
APOL1; A431, 0.0156 µM
  target mRNA inhibition: 0%
APOL1; A431, 0.0625 µM
  target mRNA inhibition: 37%
APOL1; A431, 0.25 µM
  target mRNA inhibition: 76%
APOL1; A431, 1 µM
  target mRNA inhibition: 90%
APOL1; A431, 2 µM
  target mRNA inhibition: 96%

## ATTCTCATGGTACAGG (sugars kkddddekekeddddd, PS)
APOL1; A431, 0.0156 µM
  target mRNA inhibition: 40%
APOL1; A431, 0.0625 µM
  target mRNA inhibition: 41%
APOL1; A431, 0.25 µM
  target mRNA inhibition: 71%
APOL1; A431, 1 µM
  target mRNA inhibition: 90%
APOL1; A431, 2 µM
  target mRNA inhibition: 95%

## ATTCTCATGGTACAGG (sugars kkddddkekekkdddd, PS)
APOL1; A431, 2 µM
  target mRNA inhibition: 34%

## ATTTCTTGATGTGGTG (sugars k4 d9 k3, PS)
APOL1; A431, 0.0625 µM
  target mRNA inhibition: 95%
APOL1; A431, 0.25 µM
  target mRNA inhibition: 99%
APOL1; A431, 1 µM
  target mRNA inhibition: 99%

## ATTTCTTGATGTGGTG (sugars kdddddkekekddddd, PS)
APOL1; A431, 0.0156 µM
  target mRNA inhibition: 22%
APOL1; A431, 0.0625 µM
  target mRNA inhibition: 50%
APOL1; A431, 0.25 µM
  target mRNA inhibition: 80%
APOL1; A431, 1 µM
  target mRNA inhibition: 91%
APOL1; A431, 2 µM
  target mRNA inhibition: 96%

## TTTATTCACAGGCTTGA (sugars e2 k2 d9 k2 e2, PS)
SOD1; HepG2, 5 µM
  target mRNA inhibition: 55%

## TTTATTCACAGGCTTGA (sugars e3 k2 d7 k2 e3, PS)
SOD1; HepG2, 3 µM
  target mRNA inhibition: 29%

## TTTTCATGGACCACCAGTGT (sugars e5 d10 e5, PS)
SOD1; HepG2, 5 µM
  target mRNA inhibition: 17%

## TTTTTATTCACAGGCTT (sugars e3 k2 d7 k2 e3, PS)
SOD1; HepG2, 3 µM
  target mRNA inhibition: 31%

From the OligoGym collection
